Measurements taken from PubChem BioAssay AID248 (DTP/NCI, 2004).
Several values for one entry are separate records, joined by “and”; a condition that tells them apart may be missing. Equal values may be shown once. Inconclusive results and toxic doses are left out. No stated cut-off is given here; in the data, active means T/C of 150% or more; inactive means T/C below 125%.

System: L1210 leukemia ip in BDF1 mice, survival T/C
Test: NCI In Vivo Anticancer Drug Screen. Data for tumor model L1210 Leukemia (intraperitoneal) in B6D2F1 (BDF1) mice
Conditions: endpoint: mean survival time, higher = longer survival
Outline: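 Tumor was transplanted into mice, which were then dosed with test compound or vehicle alone. Survival was recorded for each group, and the treated figure was expressed relative to the control figure.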

[1] = dose: 100.0 mg/kg/injection, schedule: Q04DX002 (ip), vehicle: saline with Tween-80
[2] = dose: 50.0 mg/kg/injection, schedule: Q01DX001 (ip), vehicle: carboxymethylcellulose (CMC)
[3] = dose: 100.0 mg/kg/injection, schedule: Q01DX001 (ip), vehicle: carboxymethylcellulose (CMC)
[4] = dose: 200.0 mg/kg/injection, schedule: Q01DX001 (ip), vehicle: carboxymethylcellulose (CMC)
[5] = dose: 400.0 mg/kg/injection, schedule: Q01DX001 (ip), vehicle: carboxymethylcellulose (CMC)
[6] = dose: 100.0 mg/kg/injection, schedule: Q01DX001 (ip), vehicle: saline
[7] = dose: 100.0 mg/kg/injection, schedule: Q04DX003 (ip), vehicle: saline
[8] = dose: 200.0 mg/kg/injection, schedule: Q01DX001 (ip), vehicle: saline
[9] = dose: 200.0 mg/kg/injection, schedule: Q04DX003 (ip), vehicle: saline
[10] = dose: 400.0 mg/kg/injection, schedule: Q01DX001 (ip), vehicle: saline
[11] = dose: 400.0 mg/kg/injection, schedule: Q04DX003 (ip), vehicle: saline
[12] = dose: 100.0 mg/kg/injection, schedule: Q01DX009 (ip), vehicle: saline
[13] = dose: 400.0 mg/kg/injection, schedule: Q01DX009 (ip), vehicle: saline

Measured: T/C

CC(=O)[C@H]1CC[C@H]2[C@@H]3CCC4=CC(=O)[C@H](C)C[C@]4(C)[C@H]3C(=O)C[C@]12C
inactive: dose: 200.0 mg/kg/injection, schedule: Q01DX001 (sc), vehicle: steriod suspending solution 98 % of control | dose: 200.0 mg/kg/injection, schedule: Q01DX009 (sc), vehicle: steriod suspending solution 100 % of control | dose: 400.0 mg/kg/injection, schedule: Q01DX001 (sc), vehicle: steriod suspending solution 104 % of control | dose: 400.0 mg/kg/injection, schedule: Q01DX009 (sc), vehicle: steriod suspending solution 100 % of control | dose: 600.0 mg/kg/injection, schedule: Q01DX001 (sc), vehicle: steriod suspending solution 96 % of control | dose: 600.0 mg/kg/injection, schedule: Q01DX009 (sc), vehicle: steriod suspending solution 92 % of control | dose: 800.0 mg/kg/injection, schedule: Q01DX001 (sc), vehicle: steriod suspending solution 96 % of control | dose: 800.0 mg/kg/injection, schedule: Q01DX009 (sc), vehicle: steriod suspending solution 92 % of control

CCCCCCC(O)C(=O)O (stereo not given)
inactive: [1] 102 % of control | dose: 200.0 mg/kg/injection, schedule: Q04DX002 (ip), vehicle: saline with Tween-80 102 % of control

CCCCC(C)(CCN)CCCC
inactive: dose: 4.0 mg/kg/injection, schedule: Q01DX015 (ip), vehicle: carboxymethylcellulose (CMC) 88 % of control | dose: 8.0 mg/kg/injection, schedule: Q01DX015 (ip), vehicle: carboxymethylcellulose (CMC) 96 % of control | dose: 16.0 mg/kg/injection, schedule: Q01DX015 (ip), vehicle: carboxymethylcellulose (CMC) 107 % of control | dose: 32.0 mg/kg/injection, schedule: Q01DX015 (ip), vehicle: carboxymethylcellulose (CMC) 90 % of control | dose: 48.0 mg/kg/injection, schedule: Q01DX015 (ip), vehicle: carboxymethylcellulose (CMC) 100 % of control | [2] 111 % of control | dose: 64.0 mg/kg/injection, schedule: Q01DX015 (ip), vehicle: carboxymethylcellulose (CMC) 93 % of control | [3] 96 % of control | dose: 100.0 mg/kg/injection, schedule: Q01DX015 (ip), vehicle: carboxymethylcellulose (CMC) 98 % of control | dose: 150.0 mg/kg/injection, schedule: Q01DX015 (ip), vehicle: carboxymethylcellulose (CMC) 100 % of control | [4] 102 % of control | [5] 113 % of control

Nc1c(N=O)c(=O)n(Cc2ccccc2)c(=O)n1Cc1ccccc1
inactive: [2] 103 % of control | [3] 105 % of control | [4] 97 % of control | [5] 100 % of control

CCCC1CCCC(=O)N1 (stereo not given)
inactive: dose: 75.0 mg/kg/injection, schedule: Q01DX001 (ip), vehicle: saline 98 % of control | dose: 150.0 mg/kg/injection, schedule: Q01DX001 (ip), vehicle: saline 98 % of control

O=[N+]([O-])c1cc(Cl)ccc1N1CCCC1
inactive: dose: 100.0 mg/kg/injection, schedule: Q01DX009 (ip), vehicle: saline with Tween-80 89 % of control | dose: 200.0 mg/kg/injection, schedule: Q01DX009 (ip), vehicle: saline with Tween-80 99 % of control

CC(=O)OCC1(C[N+](C)(C)C)CC1
inactive: [6] 103 % of control | [7] 100 % of control | [8] 97 % of control | [9] 100 % of control | [10] 105 % of control | [11] 100 % of control

O=C1C=CC(=O)O1 (tested in a mixture with another compound)
inactive: dose: 0.22 mg/kg/injection, schedule: Q01DX009 (ip), vehicle: acetone 96 % of control | dose: 0.44 mg/kg/injection, schedule: Q01DX009 (ip), vehicle: acetone 105 % of control | dose: 0.78 mg/kg/injection, schedule: Q04DX003 (ip), vehicle: other 93 % of control | dose: 0.88 mg/kg/injection, schedule: Q01DX009 (ip), vehicle: acetone 92 % of control | dose: 1.56 mg/kg/injection, schedule: Q04DX003 (ip), vehicle: other 96 % of control | dose: 3.12 mg/kg/injection, schedule: Q04DX003 (ip), vehicle: other 104 % of control | dose: 4.6 mg/kg/injection, schedule: Q04DX003 (ip), vehicle: Klucel (hydroxypropylcellulose) (HPC) 96 % of control | dose: 7.1 mg/kg/injection, schedule: Q04DX003 (ip), vehicle: Klucel (hydroxypropylcellulose) (HPC) 96 % of control | dose: 15.0 mg/kg/injection, schedule: Q01DX001 (ip), vehicle: carboxymethylcellulose (CMC) 112 % of control | dose: 22.0 mg/kg/injection, schedule: Q01DX015 (ip), vehicle: carboxymethylcellulose (CMC) 101 % of control and 119 % of control | dose: 30.0 mg/kg/injection, schedule: Q01DX001 (ip), vehicle: carboxymethylcellulose (CMC) 116 % of control | dose: 31.25 mg/kg/injection, schedule: Q#A X Z (ip), vehicle: carboxymethylcellulose (CMC) 96 % of control and 93 % of control and 108 % of control | dose: 33.0 mg/kg/injection, schedule: Q01DX015 (ip), vehicle: carboxymethylcellulose (CMC) 101 % of control and 103 % of control | dose: 50.0 mg/kg/injection, schedule: Q01DX009 (ip), vehicle: saline 107 % of control [middle of 5 runs] | dose: 50.0 mg/kg/injection, schedule: Q01DX015 (ip), vehicle: carboxymethylcellulose (CMC) 108 % of control | dose: 62.5 mg/kg/injection, schedule: Q#A X Z (ip), vehicle: carboxymethylcellulose (CMC) 96 % of control and 95 % of control and 106 % of control | dose: 75.0 mg/kg/injection, schedule: Q01DX001 (ip), vehicle: carboxymethylcellulose (CMC) 119 % of control | dose: 75.0 mg/kg/injection, schedule: Q01DX001 (ip), vehicle: water 104 % of control | dose: 75.0 mg/kg/injection, schedule: Q01DX015 (ip), vehicle: carboxymethylcellulose (CMC) 98 % of control | [6] 115 % of control | [12] 112 % of control [middle of 7 runs] | [7] 107 % of control and 112 % of control and 109 % of control | dose: 125.0 mg/kg/injection, schedule: Q#A X Z (ip), vehicle: carboxymethylcellulose (CMC) 86 % of control and 102 % of control and 106 % of control | dose: 125.0 mg/kg/injection, schedule: Q#A X Z (oral), vehicle: carboxymethylcellulose (CMC) 106 % of control and 100 % of control | dose: 150.0 mg/kg/injection, schedule: Q01DX001 (ip), vehicle: water 106 % of control | dose: 177.0 mg/kg/injection, schedule: Q01DX001 (ip), vehicle: saline 98 % of control | [8] 107 % of control | [9] 106 % of control [middle of 4 runs] | dose: 250.0 mg/kg/injection, schedule: Q#A X Z (ip), vehicle: carboxymethylcellulose (CMC) 86 % of control and 108 % of control and 90 % of control | dose: 250.0 mg/kg/injection, schedule: Q#A X Z (oral), vehicle: carboxymethylcellulose (CMC) 106 % of control and 100 % of control and 103 % of control | dose: 270.0 mg/kg/injection, schedule: Q01DX001 (ip), vehicle: saline 105 % of control | dose: 300.0 mg/kg/injection, schedule: Q01DX001 (ip), vehicle: water 97 % of control | [10] 112 % of control and 100 % of control | [13] 113 % of control | dose: 500.0 mg/kg/injection, schedule: Q#A X Z (oral), vehicle: carboxymethylcellulose (CMC) 100 % of control and 102 % of control | dose: 600.0 mg/kg/injection, schedule: Q01DX001 (ip), vehicle: saline 94 % of control | dose: 1000.0 mg/kg/injection, schedule: Q#A X Z (oral), vehicle: carboxymethylcellulose (CMC) 100 % of control and 106 % of control and 102 % of control

CCOC(=O)C1CSCC1=O (stereo not given)
inactive: dose: 25.0 mg/kg/injection, schedule: Q01DX009 (ip), vehicle: water 97 % of control | dose: 50.0 mg/kg/injection, schedule: Q01DX009 (ip), vehicle: water 90 % of control | dose: 100.0 mg/kg/injection, schedule: Q01DX009 (ip), vehicle: water 104 % of control

O=C(O)C1C2CC3OC(=O)C1C3C2 (stereo not given)
inactive: [6] 93 % of control | [12] 98 % of control | dose: 100.0 mg/kg/injection, schedule: Q04DX003 (ip), vehicle: saline with Tween-80 91 % of control | [7] 97 % of control and 98 % of control | [8] 94 % of control | dose: 200.0 mg/kg/injection, schedule: Q01DX009 (ip), vehicle: saline 87 % of control | dose: 200.0 mg/kg/injection, schedule: Q04DX003 (ip), vehicle: saline with Tween-80 94 % of control | [9] 95 % of control and 100 % of control | [10] 100 % of control | [13] 87 % of control | dose: 400.0 mg/kg/injection, schedule: Q04DX003 (ip), vehicle: saline with Tween-80 104 % of control | [11] 98 % of control and 115 % of control

Cc1ccc(S(=O)(=O)Nc2ccc(-c3ccc(NS(=O)(=O)c4ccc(C)cc4)cc3)cc2)cc1
inactive: dose: 50.0 mg/kg/injection, schedule: Q04DX002 (ip), vehicle: saline with Tween-80 89 % of control | [1] 95 % of control
